The target of test [1] is T1, cloned human H3 receptors (Homo sapiens, UniProt Q9Y5N1).
T1 construct: expressed in transfected cells
Briefly: H3 Receptor Binding (Human). On the procedure: H3 Receptor Binding (Human)
Binding of compounds to the cloned human H3 receptors, stably expressed in SK-N-MC cells, was performed as described by Barbier, A. J. et al. (Br. J. Pharmacol. 2004, 143(5), 649-661).

In a further test the target is Rat H3 (Rattus norvegicus, UniProt Q9QYN8). Briefly: H3 Receptor Binding (Rat). The following applies: rat brain membranes without cerebellum, 0.8 nM N-[3H]-α-methylhistamine, 60 min at 25° C.; average of the results obtained. On the procedure: H3 Receptor Binding (Rat)
A rat brain without cerebellum (Zivic Laboratories Inc., Pittsburgh, Pa.) was homogenized in 50 mM Tris-HCl/5 mM EDTA and centrifuged at 1,000 rpm for 5 min. The supernatant was removed and recentrifuged at 15,000 rpm for 30 min. Pellets were rehomogenized in 50 mM Tris/5 mM EDTA (pH 7.4). Membranes were incubated with 0.8 nM N-[^3H]-α-methylhistamine plus/minus test compounds for 60 min at 25° C. and harvested by rapid filtration over GF/C glass fiber filters (pretreated with 0.3% polyethylenimine) followed by four washes with buffer. Nonspecific binding was defined in the presence of 100 μM histamine.

[2] abbreviates: cloned human H3 receptors stably expressed in SK-N-MC cells, average of the results obtained, read-out: Human H3 Ki.
The mark [3] stands for this setting: bromo-pyridine intermediates (Step A), value given in the synthesis, read-out: Assay 1 (Human H3): Ki.

Structures can show the parent of a compound that is named as a salt. Where two headings read alike, the source gives them in different places.

Sequence of Rat H3 (Q9QYN8 1-397 isoform Q9QYN8-3): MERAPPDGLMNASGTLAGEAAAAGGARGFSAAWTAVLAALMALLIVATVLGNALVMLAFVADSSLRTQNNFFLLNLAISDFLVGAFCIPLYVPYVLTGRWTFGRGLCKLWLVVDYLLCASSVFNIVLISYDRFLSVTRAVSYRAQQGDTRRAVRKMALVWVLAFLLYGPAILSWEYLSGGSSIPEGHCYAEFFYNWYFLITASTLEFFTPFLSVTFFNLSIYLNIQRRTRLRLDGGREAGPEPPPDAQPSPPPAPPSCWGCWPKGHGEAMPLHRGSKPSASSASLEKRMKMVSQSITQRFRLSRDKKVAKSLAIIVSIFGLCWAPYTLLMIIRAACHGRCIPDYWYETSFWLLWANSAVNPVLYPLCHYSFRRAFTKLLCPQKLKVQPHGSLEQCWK
T1 sequence (Q9Y5N1 whole entry): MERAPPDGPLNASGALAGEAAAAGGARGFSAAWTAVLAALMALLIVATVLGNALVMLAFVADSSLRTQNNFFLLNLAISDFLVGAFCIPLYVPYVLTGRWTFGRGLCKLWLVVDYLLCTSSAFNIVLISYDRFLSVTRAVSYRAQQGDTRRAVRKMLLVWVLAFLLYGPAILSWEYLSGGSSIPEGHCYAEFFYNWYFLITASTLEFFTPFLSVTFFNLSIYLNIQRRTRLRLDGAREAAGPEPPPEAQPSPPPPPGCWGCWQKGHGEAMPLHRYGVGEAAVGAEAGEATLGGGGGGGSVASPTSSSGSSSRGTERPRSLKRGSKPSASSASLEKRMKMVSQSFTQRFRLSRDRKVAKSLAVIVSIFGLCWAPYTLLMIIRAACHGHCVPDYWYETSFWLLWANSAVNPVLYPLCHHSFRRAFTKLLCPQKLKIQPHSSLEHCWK

Consider `N#Cc1cccc(Oc2ccc(C(=O)N3CCCN(C4CCC4)CC3)cn2)c1` [Example 20, 3-[5-(4-Cyclobutyl-[1,4]diazepane-1-carbonyl)-pyridin-2-yloxy]-benzonitrile], for which the Ki (commonly a measure of affinity in units of concentration, obtained from inhibition or displacement) in test [1] (setting [2]) is 1 nM; on Rat H3, 17 nM. As for `O=C(c1ccc(Oc2ccccc2)nc1)N1CCCN(C2CC2)CC1` [Example 13, (4-Cyclopropyl-[1,4]diazepan-1-yl)-(6-phenoxy-pyridin-3-yl)-methanone], the Ki in test [1] (setting [2]) turned out to be 6 nM; at Rat H3, 54 nM. Regarding `O=C(c1ccc(Oc2cc(F)cc(F)c2)nc1)N1CCCN(C2CCC2)CC1` [Example 36, (4-Cyclobutyl-[1,4]diazepan-1-yl)-[6-(3,5-difluoro-phenoxy)-pyridin-3-yl]-methanone], the values for the Ki (in test [1] (setting [2]); on Rat H3) were 1 nM and 30 nM, respectively. As to `CSc1ccc(Oc2ccc(C(=O)N3CCCN(C4CC4)CC3)cn2)cc1C` [Example 41, (4-Cyclopropyl-[1,4]diazepan-1-yl)-[6-(3-methyl-4-methylsulfanyl-phenoxy)-pyridin-3-yl]-methanone], the Ki in test [1] (setting [2]) came to 4 nM; on Rat H3, 75 nM.

`O=C(c1ccc(Oc2ccccc2)nc1)N1CCCN(C2CCC2)CC1` [Example 21, (4-Cyclobutyl-[1,4]diazepan-1-yl)-(6-phenoxy-pyridin-3-yl)-methanone]: the values for the Ki (in test [1] (setting [2]); on Rat H3) were 2 nM and 16 nM, respectively. For the compound `CC(C)N1CCN(C(=O)c2ccc(Oc3ccc(Cl)c(Cl)c3)c(C#N)n2)CC1` [Example 53, 3-(3,4-Dichloro-phenoxy)-6-(4-isopropyl-piperazine-1-carbonyl)-pyridine-2-carbonitrile trifluoroacetic acid salt], the Ki in test [1] (setting [2]) turned out to be 49 nM. In the case of `CC(C)N1CCN(C(=O)c2ccc(Oc3ccc(Cl)c(Cl)c3)nc2)CC1` [Example 1, [6-(3,4-Dichloro-phenoxy)-pyridin-3-yl]-(4-isopropyl-piperazin-1-yl)-methanone], in test [1] (setting [2]), the Ki was found to be 29 nM. `O=C(c1cccc(Br)n1)N1CCCN(C2CC2)CC1` [(6-Bromo-pyridin-2-yl)-(4-cyclopropyl-[1,4]diazepan-1-yl)-methanone]: the Ki in test [1] (setting [3]) was 431 nM.

Turning to `O=C(c1ccc(Oc2ccc(Cl)cc2)nc1)N1CCCN(C2CC2)CC1` [Example 10, [6-(4-Chloro-phenoxy)-pyridin-3-yl]-(4-cyclopropyl-[1,4]diazepan-1-yl)-methanone], the inhibition constant Ki in test [1] (setting [2]) is 10 nM. For the compound `O=C(c1ccc(Oc2cc(Cl)cc(Cl)c2)nc1)N1CCCN(C2CC2)CC1` [Example 35, (4-Cyclopropyl-[1,4]diazepan-1-yl)-[6-(3,5-dichloro-phenoxy)-pyridin-3-yl]-methanone], in test [1] (setting [2]), the Ki stood at 3 nM. As for `O=C(c1ccc(Br)cn1)N1CCCN(C2CC2)CC1` [(5-Bromo-pyridin-2-yl)-(4-cyclopropyl-[1,4]diazepan-1-yl)-methanone], the Ki in test [1] (setting [3]) was determined as 115 nM.

Regarding `CC(C)N1CCN(C(=O)c2ccc(Oc3ccccc3Cl)nc2)CC1` [Example 75, [6-(2-Chloro-phenoxy)-pyridin-3-yl]-(4-isopropyl-piperazin-1-yl)-methanone], the Ki in test [1] (setting [2]) worked out at 9 nM. Consider `O=C(c1ccc(Sc2ccccc2)cn1)N1CCCN(C2CCC2)CC1` [Example 91, (4-Cyclobutyl-[1,4]diazepan-1-yl)-(5-phenylsulfanyl-pyridin-2-yl)-methanone], for which, in test [1] (setting [2]), the Ki turned out to be 3 nM. For the compound `CSc1ccc(Oc2ccc(C(=O)N3CCN(C4CCCC4)CC3)cn2)cc1C` [Example 100, (4-Cyclopentyl-piperazin-1-yl)-[6-(3-methyl-4-methylsulfanyl-phenoxy)-pyridin-3-yl]-methanone], in test [1] (setting [2]), the Ki came to 98 nM.

As for `Cc1cc(Oc2cccc(C(=O)N3CCCN(C(C)C)CC3)n2)ccc1Cl` [Example 49, [6-(4-Chloro-3-methyl-phenoxy)-Pyridin-2-yl]-(4-isopropyl-[1,4]diazepan-1-yl)-methanone trifluoroacetic acid salt], the Ki in test [1] (setting [2]) was determined as 115 nM. The same measure, in the same setting: the same measure for `CC(C)N1CCCN(C(=O)c2ccc(Oc3ccc(Cl)c(Cl)c3)cn2)CC1` [Example 50, [5-(3,4-Dichloro-phenoxy)-pyridin-2-yl]-(4-isopropyl-[1,4]diazepan-1-yl)-methanone trifluoroacetic acid salt]: 18 nM. For the compound `CC(C)N1CCN(C(=O)c2ccc(Oc3ccc(Cl)c(Cl)c3)c(CN)n2)CC1` [Example 64, [6-Aminomethyl-5-(3,4-dichloro-phenoxy)-pyridin-2-yl]-(4-isopropyl-piperazin-1-yl)-methanone trifluoroacetic acid salt], in test [1] (setting [2]), the Ki was determined as 165 nM.

Regarding `O=C(c1ccc(Oc2cc(F)ccc2F)nc1)N1CCCN(C2CC2)CC1` [Example 34, (4-Cyclopropyl-[1,4]diazepan-1-yl)-[6-(2,5-difluoro-phenoxy)-pyridin-3-yl]-methanone], the Ki in test [1] (setting [2]) is 5 nM. Still for that read-out and setting: the same measure for `O=C(c1ccc(Oc2cccc(F)c2)cn1)N1CCCN(C2CCC2)CC1` [Example 71, (4-Cyclobutyl-[1,4]diazepan-1-yl)-[5-(3-fluoro-phenoxy)-pyridin-2-yl]-methanone trifluoroacetic acid salt]: 2 nM. Take `CC(C)N1CCN(C(=O)c2ccc(Oc3ccc(F)c(F)c3)nc2)CC1` [Example 28, [6-(3,4-Difluoro-phenoxy)-pyridin-3-yl]-(4-isopropyl-piperazin-1-yl)-methanone]: the inhibition constant (Ki) in test [1] (setting [2]) is 13 nM. With `NC(=O)c1nc(C(=O)N2CCCN(C3CC3)CC2)ccc1Oc1cccnc1` [Example 63, 6-(4-Cyclopropyl-[1,4]diazepane-1-carbonyl)-3-(pyridin-3-yloxy)-pyridine-2-carboxylic acid amide], the Ki in test [1] (setting [2]) was found to be 32 nM.

Regarding `CC(C)N1CCCN(C(=O)c2cccc(Br)n2)CC1` [(6-Bromo-pyridin-2-yl)-(4-isopropyl-[1,4]diazepan-1-yl)-methanone], the Ki in test [1] (setting [3]) was 752 nM. Take `O=C(c1cccc(Oc2ccc(Cl)c(Cl)c2)n1)N1CCCN(C2CC2)CC1` [Example 44, (4-Cyclopropyl-[1,4]diazepan-1-yl)-[6-(3,4-dichloro-phenoxy)-pyridin-2-yl]-methanone]: the Ki in test [1] (setting [2]) was found to be 327 nM. `CSc1ccc(Oc2ccc(C(=O)N3CCN(C(C)C)CC3)cn2)cc1C` [Example 101, (4-Isopropyl-piperazin-1-yl)-[6-(3-methyl-4-methylsulfanyl-phenoxy)-pyridin-3-yl]-methanone]: the Ki in test [1] (setting [2]) came to 59 nM. On to `O=C(c1ccc(Sc2ccc(Cl)cc2)nc1)N1CCCN(C2CCC2)CC1` [Example 85, [6-(4-Chloro-phenylsulfanyl)-pyridin-3-yl]-(4-cyclobutyl-[1,4]diazepan-1-yl)-methanone], for which the Ki in test [1] (setting [2]) worked out at 1 nM. On to `CN1CCCN(C(=O)c2ccc(Oc3ccc(F)cc3)nc2)CC1` [Example 80, [6-(4-Fluoro-phenoxy)-pyridin-3-yl]-(4-methyl-[1,4]diazepan-1-yl)-methanone], for which the Ki in test [1] (setting [2]) was 253 nM. On to `CC(C)N1CCN(C(=O)c2ccc(Oc3ccccc3)nc2)CC1` [Example 5, (4-Isopropyl-piperazin-1-yl)-(6-phenoxy-pyridin-3-yl)-methanone], for which the Ki in test [1] (setting [2]) came out at 71 nM.

`O=C(c1ccc(Oc2ccc(Cl)cc2)nc1)N1CCN(C2CCCC2)CC1` [Example 77, [6-(4-Chloro-phenoxy)-Pyridin-3-yl]-(4-cyclopentyl-piperazin-1-yl)-methanone]: the Ki in test [1] (setting [2]) is 22 nM.

The values are drawn from US8940731B2, “Substituted pyridyl amide compounds as modulators of the histamine H3 receptor” (Janssen Pharmaceutica NV, priority 2006, dated 2015).
